pIC50: −log10 of the molar value.
Assays:
[1] = molecular target: human prostacyclin (PGI2) receptor (Homo sapiens (Human), UniProt P43119); assay: HTRF assay for direct cAMP measurement; format: cell-based; settings: recombinant CHO-K1 cells stably transfected with human prostacyclin receptor; cAMP increase
Excerpt: Compounds were screened for agonists of the human prostacyclin (PGI2) receptor using the HTRF® assay for direct cAMP measurement (Gabriel et al., ASSAY and Drug Development Technologies, 1:291-303, 2003) and recombinant CHO-K1 cells stably transfected with human prostacyclin receptor. CHO-K1 cells were obtained from ATCC® (Manassas, Va.; Catalog # CCL-61). An agonist of the prostacyclin receptor was detected in HTRF® assay for direct cAMP measurement as a compound which increased cAMP concentration. HTRF® assay also was used to determine EC50 values for prostacyclin receptor agonists.
The HTRF® assay kit was purchased from Cisbio-US, Inc. (Bedford, Mass.; Catalog #62AM4PEC). The HTRF® assay supported by the kit is a competitive immunoassay between endogenous cAMP produced by the CHO-K1 cells and tracer cAMP labeled with the dye d2. The tracer binding is visualized by a monoclonal anti-cAMP antibody labeled with Cryptate. The specific signal (i.e., fluorescence resonance energy transfer, FRET) is inversely proportional to the concentration of unlabeled cAMP in the standard or sample.
The fluorescence ratio (665 nm/620 nm) of the standards (0.17 to 712 nM cAMP) included in the assay was calculated and used to generate a cAMP standard curve according to the kit manufacturer's instructions. The fluorescence ratio of the samples (test compound or compound buffer) was calculated and used to deduce respective cAMP concentrations by reference to the cAMP standard curve.
The HTRF® assay was carried out using a two-step protocol essentially according to the kit manufacturer's instructions, in 20 μL total volume per well in 384-well plate format (ProxiPlates; PerkinElmer, Fremont, Calif.; catalog #6008280). To each of the experimental wells was transferred 3000 recombinant CHO-K1 cells in 5 μL assay buffer (phosphate buffered saline containing calcium chloride and magnesium chloride (Invitrogen, Carlsbad, Calif.; catalog #14040) supplemented with IBMX ([…]) and rolipram ([…]) (phosphodiesterase inhibitors; Sigma-Aldrich, St. Louis, Mo.; catalog #15879 and catalog # R6520, respectively) and 0.1% bovine serum albumin (BSA) fraction V (Sigma-Aldrich; catalog # A3059)), followed by test compound in 5 μL assay buffer or 5 μL assay buffer. The plate was then incubated at room temperature for 1 h. To each well was then added 5 μL cAMP-d2 conjugate in lysis buffer and 5 μL Cryptate conjugate in lysis buffer according to the kit manufacturer's instructions. The plate was then further incubated at room temperature for 1 h, after which the assay plate was read.
The HTRF® readout was accomplished using a PHERAstar (BMG LABTECH Inc., Durham, N.C.) or EnVision™ (PerkinElmer, Fremont Calif.) microplate reader.

human PRP = assay: Human platelet aggregation inhibition test; format: cell-based; settings: ADP-induced aggregation (1×10^−5 M ADP) in human platelet-rich plasma
Procedure: Blood collected from healthy human volunteers in aqueous trisodium citrate solution was centrifuged at 150 g for 15 min and the upper layer was recovered to obtain platelet-rich plasma (PRP). The residual blood was centrifuged at 3000 g for 10 min and the supernatant was collected as platelet-poor plasma (PPP). Platelet concentration in the PRP was determined using the Z series Beckman Coulter particle counter (Beckman, Fullerton, Calif.) and adjusted to 250,000 platelets/μL using PPP. 480 μL of PRP was pre-incubated at 37° C. and stirred at 1200 rpm with 10 μL aqueous test compound solution for 1 min prior to induction of aggregation by the addition of 10 μL of aqueous adenosine diphosphate (ADP) solution to adjust the final ADP concentration in the PRP to 1×10^−5 M. The maximal amplitude of aggregation response within 3 min was determined and measured in triplicate using the Chronolog model 490 aggregometer (Chrono-log Corp., Havertown, Pa.). Percent inhibition of aggregation was calculated from the maximum decrease in optical density of the control (addition of water in place of the test compound solution) sample and of the samples containing test compound. The test compound was added to adjust the final concentration to the range 10^−9 to 10^−4 M, and IC50 values were determined by inhibition percentage of aggregation at each concentration.

[2] = system: MCT-induced pulmonary arterial hypertension in rat; assay: Rat monocrotaline (MCT) model of pulmonary arterial hypertension; format: in vivo; settings: 30 mg/kg oral gavage twice a day for 21 days, male Wistar rats, 60 mg/kg MCT s.c.; FIG. 1
Procedure: Male Wistar rats (100-150 g at start of study) (Charles River Laboratories, Wilmington, Mass.) were housed two per cage and maintained in a humidity-(40-60%) and temperature-(68-72° F.) controlled facility on a 12 hr: 12 hr light/dark cycle (lights on at 6:30 am) with free access to food (Harlan Teklad, Orange Calif., Rodent Diet 8604) and water. Rats were allowed one week of habituation to the animal facility before testing.
The rat monocrotaline (MCT) model is a standard and well-accepted model of pulmonary arterial hypertension. MCT induces acute pulmonary endothelial damage associated with pulmonary vascular inflammation. […]
Rats were randomly given a single subcutaneous injection of either 60 mg/kg MCT (Sigma, St. Louis, Mo.) or 0.9% saline (sham) and assigned to receive oral administration of 20% hydroxypropyl beta-cyclodextrin (vehicle) or test compound (30 mg/kg; FIG. 1). […] Heart chamber weights were measured on Day 22. […] The ratio of right ventricular (RV) weight to left ventricle plus septum (LV+S) weight (this ratio is indicated as “RV/(LV+S)” in FIG. 1) was calculated as an index of the hypertrophic response to the induced pulmonary arterial hypertension and, as such, as an index of a test compound's therapeutic efficacy for pulmonary arterial hypertension.

human prostacyclin (PGI2) receptor, sequence (P43119 whole entry): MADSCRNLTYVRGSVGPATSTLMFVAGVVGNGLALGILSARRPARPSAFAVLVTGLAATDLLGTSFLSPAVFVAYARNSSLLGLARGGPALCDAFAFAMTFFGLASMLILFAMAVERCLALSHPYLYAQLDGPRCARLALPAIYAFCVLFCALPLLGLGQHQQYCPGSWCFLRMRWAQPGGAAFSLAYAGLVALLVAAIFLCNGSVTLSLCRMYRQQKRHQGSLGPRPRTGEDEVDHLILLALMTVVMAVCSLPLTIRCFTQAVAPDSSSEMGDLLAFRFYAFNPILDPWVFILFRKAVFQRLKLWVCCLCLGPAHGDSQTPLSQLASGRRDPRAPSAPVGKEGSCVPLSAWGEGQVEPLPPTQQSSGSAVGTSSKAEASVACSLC

| SMILES | EC50 [1] [nM] | pIC50 (human PRP) | right ventricle hypertrophic response, RV/(LV+S) [2] |
| --- | --- | --- | --- |
| Cc1ccc(-c2nc(=O)n(C[C@H]3CC[C@@H](COCC(=O)O)CC3)nc2-c2ccc(C)cc2)cc1 [Compound 43, 2-(((1s,4s)-4-((3-oxo-5,6-di-p-tolyl-1,2,4-triazin-2(3H)-yl)methyl)cyclohexyl)methoxy)acetic acid] | 36 | 6.89 | – |
| Cc1ccc(-c2nn(C[C@H]3CC[C@@H](COCC(=O)O)CC3)c(=O)nc2-c2ccccc2)cc1 [Compound 68, 2-(((1s,4s)-4-((3-oxo-5-phenyl-6-p-tolyl-1,2,4-triazin-2(3H)-yl)methyl)cyclohexyl)methoxy)acetic acid] | – | – | inhibited the hypertrophic response |
| O=C(O)COC[C@H]1CC[C@@H](Cn2nc(-c3ccccc3)c(-c3cccc(F)c3F)cc2=O)CC1 [Compound 8, 2-(((1s,4s)-4-((4-(2,3-difluorophenyl)-6-oxo-3-phenylpyridazin-1(6H)-yl)methyl)cyclohexyl)methoxy)acetic acid] | – | 7.17 | – |
| COc1ccc(-c2nn(C[C@H]3CC[C@@H](COCC(=O)O)CC3)c(=O)nc2-c2ccccc2)cc1 [Compound 69, 2-(((1s,4s)-4-((6-(4-methoxyphenyl)-3-oxo-5-phenyl-1,2,4-triazin-2(3H)-yl)methyl)cyclohexyl)methoxy)acetic acid] | 8 | 7.66 | – |
| O=C(O)COC[C@H]1CC[C@@H](Cn2nc(-c3ccccc3)c(-c3cccc(Cl)c3)nc2=O)CC1 [Compound 67, 2-(((1s,4s)-4-((5-(3-chlorophenyl)-3-oxo-6-phenyl-1,2,4-triazin-2(3H)-yl)methyl)cyclohexyl)methoxy)acetic acid] | 73 | – | – |
| O=C(O)COC[C@H]1CC[C@@H](Cn2nc(-c3ccccc3)c(-c3cccc(Cl)c3F)cc2=O)CC1 [Compound 31, 2-(((1s,4s,)-4-((4-(3-chloro-2-fluorophenyl)-6-oxo-3-phenylpyridazin-1(6H)-yl)methyl)cyclohexyl)methoxy)acetic acid] | 31 | 7.68 | – |

Source: patent US10793529B2, “Substituted pyridazines and 1,2,4-triazines as prostacyclin receptor modulators” (Arena Pharmaceuticals, Inc., priority 2008, dated 2020)
